# Test results as given in US20190008810A1, “METHOD FOR PREVENTION, TREATMENT AND ALLEVIATION OF INFECTIOUS DISEASES AND DISORDERS” (REPLICON HEALTH OY, priority 2016, published 2019).
# How the values were obtained:
# [1] = test system: acute bowels inflammation caused by diverticulitis; test: Healing from acute inflammatory bowels disease (diverticulitis) in S4, Example 1e; type: in vivo, human; conditions: S4, 1000 mg 1-2 times a day, before DGA
# Text: In Example 1e the resolution of gastrointestinal tract infection in another subject 4 (S4) has been shown. Like in S1 also in S4 the HO-1 pathway is clearly activated by the DGA Activation. This is indirectly shown by the clear reduction of blood bilirubin in Table 1e. […] During last few years these seldom but acute inflammations in the gastrointestinal tract have been mostly in the colon and caused by inflammation in Colonic diverticula. […] The only functioning therapy for inflammatory bowels disease has been the administration of strong intravenous antibiotics.
# Like other tests with unhealthy humans also this test was done because there were no other efficient substances available. When symptoms of increased bowels inflammation/diverticulosis started S4 was on holiday abroad with very difficult access to any specialized doctor not to mention any hospital. […] Simultaneously with inflammatory symptoms and maybe partially enhancing them S4 experienced constipation.
# By Saturday night on the 4th day of gradually increasing acute inflammation in the colon, S4 decided to test whether DGA Activation in combination with paracetamol would assist in resolving this already rather serious inflammation. There were no other available options at that moment. This decision was also supported by confidential information received on positive results with S1 (Examples 1b and 1c).
# Saturday night at 0737 pm first 260 mg of D-glyceric acid calcium salt mixed into water was taken with 2×500 mg of paracetamol. Another additional 260 mg dose of DGAcs mixed into water was taken the same night at 1020 pm. Altogether the starting dose was 9 mg/kg i.e. relatively high. High initial dose was chosen because of high level of inflammation.
# [2] = test system: seasonal flu or similar infectious disease; type: in vivo, human; conditions: S1, 2 or 3 times 1×500 mg during work days, before DGA
smiles,measurement,setting,value
"CC(=O)Nc1ccc(O)cc1 [paracetamol, reference compound]",effect on pains and symptoms,[1],helped to relief pains for 2-3 days but the symptoms got worse
same,effect on general symptoms and fever,[2],temporary relief but no cure
